US20260206761A1, “HETEROARYL-TRIAZOLE COMPOUNDS AS PESTICIDES” (Bayer Aktiengesellschaft, priority 2019, published 2026)

Key:
Format in all cases: in vivo
[1] = system: fall armyworm larvae (Spodoptera frugiperda); test: Spodoptera frugiperda spray test; conditions: 168 h, read-out: activity (mortality)
Method in brief: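 Compound in acetone/DMF, diluted in water with 1000 ppm alkylarylpolyglycol ether emulsifier, sprayed on maize leaf sections. Dried leaves infested with fall armyworm larvae; % mortality after 7 days (100% = all killed, 0% = none).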

[2] = system: larvae of the banded cucumber beetle (Diabrotica balteata); test: Diabrotica balteata spray test; conditions: 168 h, after 7 days, read-out: activity (efficacy: seedlings grown); for pest or weed control at 100 g/ha: application rate 100 g/ha (=32 pg/well); for pest or weed control at 500 g/ha: application rate 500 g/ha (=160 pg/well)
Method in brief: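 Wheat seedlings, germinated 1 day on agar (5 seeds/well), sprayed with active compound in acetone/DMF diluted in water containing 1000 ppm emulsifier, then infested with 10-20 D. balteata larvae. Efficacy (%) scored after 7 days: 100% = seedlings grown as untreated uninfested control, 0% = no seedlings grown.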

[3] = system: brown planthopper (Nilaparvata lugens); test: Nilaparvata lugens spray test; conditions: 96 h, application rate 500 g/ha, after 4 days
Description: Nilaparvata lugens—Spray Test
Solvent: 78.0 parts by weight of acetone • • 1.5 parts by weight of dimethylformamide
Emulsifier: alkylarylpolyglycol ether
To produce a suitable preparation of active compound, 1 part by weight of active compound is mixed with the stated amount of solvents and is diluted with water, containing an emulsifier concentration of 1000 ppm, to the desired concentration. Further test concentrations are prepared by dilution with emulsifier containing water.
Rice plants (Oryza sativa) are sprayed with a preparation of the active ingredient of the desired concentration and the plants are infested with the brown planthopper (Nilaparvata lugens).
After 4 days mortality in % is determined. 100% means all planthoppers have been killed and 0% means none of the planthoppers have been killed.

[4] = system: larvae of the southern green stink bug (Nezara viridula); test: Nezara viridula spray test; conditions: 96 h, application rate 500 g/ha, after 4 days
Method in brief: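 Compound in acetone/dimethylformamide, diluted in water with 1000 ppm alkylarylpolyglycol ether emulsifier, sprayed onto barley plants carrying stink bug larvae. Mortality (%) scored after 4 days, 100% meaning all insects killed.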

[5] = system: Anopheles funestus strain FUMOZ-R; test: Anopheles funestus test (ANPHFU surface treatment & contact assay); conditions: 24 hours after contact, read-out: efficacy (mortality); for mortality at 4 mg/m2: surface concentration 4 mg/m^2, exposure 30 minutes
Description: Anopheles funestus Test (ANPHFU Surface Treatment & Contact Assay)
(§1) Solvent: Aceton+2000 ppm rapeseed oil methyl ester (RME)
(§2) In order to produce a sufficient, active ingredient containing solution it is necessary to solve the test compound in the solvent-mix (acetone at 2 mg/ml/RME 2000 ppm). This solution is pipetted onto a glazed tile and after evaporation of the acetone, adult mosquitoes of the species Anopheles funestus strain FUMOZ-R (Hunt et al., Med. Vet. Entomol. 2005 September; 19(3): 271-275) are placed onto the dried surface. The exposure time is 30 minutes. Mortality in percent (%) is determined 24 hours after contact of the insects to the treated surface. 100% mortality means that all tested insects are dead, whereas 0% means that no insect died.

[6] = system: Aedes aegypti strain MONHEIM; test: Aedes aegypti test (AEDSAE surface treatment & contact assay); conditions: 24 hours after contact, read-out: efficacy (mortality); for mortality at 4 mg/m2: surface concentration 4 mg/m^2, exposure 30 minutes; for mortality at 20 mg/m2: surface concentration 20 mg/m^2, exposure 30 minutes
Method in brief: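 Compound in acetone (2 mg/ml) with 2000 ppm RME pipetted onto glazed tile and dried; adult Aedes aegypti MONHEIM exposed 30 min. Percent mortality scored 24 h after contact.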

[7] = system: Rhipicephalus microplus larvae (strain Parkhurst, resistant against synthetic pyrethroids); test: Rhipicephalus (Boophilus) microplus in-vitro contact test, larval cattle tick; conditions: after 48 hours, read-out: activity (efficacy: larvae dead or moribund); for pest or weed control at 100 g/ha: application rate 1 pg/cm^2 (=100 g/ha); for pest or weed control at 500 g/ha: application rate 5 pg/cm^2 (=500 g/ha)
Method in brief: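 Acetone solutions coated onto inner walls of glass tubes by rotation (900 ppm giving 5 μg/cm^2); after evaporation, 20-50 larvae added per tube and held at 27° C., 85% relative humidity. Efficacy read after 48 h from negative geotactic behaviour; 100% = all larvae dead or moribund.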

[8] = system: adult unfed cat fleas (Ctenocephalides felis); test: Ctenocephalides felis oral test; conditions: 48 h, read-out: activity (mortality)
Method in brief: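 About 20 adult unfed fleas fed through parafilm on cattle blood containing compound (DMSO stock diluted in blood), blood held at 37 °C and fleas at room temperature. Mortality (%) scored after 2 days.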

[9] = system: adult engorged female ticks (Rhipicephalus microplus); test: Rhipicephalus (Boophilus) microplus injection test; conditions: 168 h, egg deposition after 7 days, read-out: activity (efficacy: infertile eggs); for pest or weed control at 4 pg: application rate 4 pg/animal; for pest or weed control at 0.02 mg: application rate 20 μg/animal
Method in brief: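 Five adult engorged female ticks injected into the abdomen with 1 μL compound solution in DMSO, then held in a climate chamber. Fertile egg deposition assessed after 7 days, unclear eggs kept until hatching (about 42 days); efficacy 100% = all eggs infertile, 0% = all fertile.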

[10] = system: adult cat fleas (Ctenocephalides felis); test: Ctenocephalides felis in-vitro contact test, adult cat flea; conditions: application rate 5 μg/cm^2 (=500 g/ha), after 48 hours, read-out: activity (efficacy: fleas dead or moribund)
Method in brief: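 Acetone solutions of compound coated onto inner walls of glass tubes (900 ppm giving […]); after drying, 5-10 adult Ctenocephalides felis added and held at room temperature. At 48 h, fleas placed on a 45-50° C heating plate; those unable to climb away scored dead or moribund, expressed as % efficacy.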

[11] = system: green peach aphid (Myzus persicae); test: Myzus persicae spray test; conditions: 120 h, application rate 500 g/ha, after 5 days
Method in brief: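 Chinese cabbage leaf disks carrying all instars of M. persicae sprayed with compound in acetone/DMF, diluted in water with 1000 ppm alkylarylpolyglycol ether emulsifier. Percent mortality scored after 5 days (100% = all aphids killed).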

[12] = system: adult brown dog ticks (Rhipicephalus sanguineus); test: Rhipicephalus sanguineus in-vitro contact test, adult brown dog ticks; conditions: after 48 hours, read-out: activity (efficacy: ticks dead or moribund); for pest or weed control at 100 g/ha: application rate 1 pg/cm^2 (=100 g/ha); for pest or weed control at 5 µg/cm2, 500 g/ha: application rate 5 μg/cm^2 (=500 g/ha)
Method in brief: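 Acetone solution rolled onto tube walls, 2 h at 30 rpm; 900 ppm → 5 μg/cm^2. Solvent evaporated, 5-10 adults/tube, perforated lid, lying, RT. 48 h: heat plate 45-50° C ≤5 min; immotile/uncoordinated = dead/moribund. 100% = all dead/moribund.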

[13] = system: Culex quinquefasciatus strain P00; test: Culex quinquefasciatus test (CULXFA surface treatment & contact assay); conditions: 24 hours after contact, read-out: efficacy (mortality); for mortality at 4 mg/m2: surface concentration 4 mg/m^2, exposure 30 minutes
Description: Culex quinquefasciatus Test (CULXFA Surface Treatment & Contact Assay)
as §1
as §2, with “2 000” for “2000”, “Culex quinquefasciatus” for “Anopheles funestus”, “P00” for “FUMOZ-R (Hunt et al., Med. Vet. Entomol. 2005 September; 19(3): 271-275)”

[14] = system: Musca domestica strain WHO-N; test: Musca domestica test (MUSCDO surface treatment & contact assay); conditions: surface concentration 20 mg/m^2, exposure 30 minutes, 24 hours after contact, read-out: efficacy (mortality)
Description: Musca domestica Test (MUSCDO Surface Treatment & Contact Assay)
as §1
as §2, with “flies” for “mosquitoes”, “Musca domestica” for “Anopheles funestus”, “WHO—N” for “FUMOZ-R (Hunt et al., Med. Vet. Entomol. 2005 September; 19(3): 271-275)”

[15] = surface concentration 20 mg/m^2, exposure 30 minutes

Compound | mortality at 100 g/ha [1] [%] | pest or weed control at 100 g/ha [2] [%] | mortality at 500 g/ha [1] [%] | mortality at 4 mg/m2 [5] [%] | mortality at 4 mg/m2 [6] [%] | pest or weed control at 500 g/ha [2] [%] | pest or weed control at 100 g/ha [7] [%] | pest or weed control at 500 g/ha [7] [%] | mortality at 20 mg/m2 [6] [%] | mortality at 100 ppm [8] [%] | pest or weed control at 4 pg [9] [%] | pest or weed control at 0.02 mg [9] [%] | pest or weed control at 5 µg/cm2 [10] [%] | pest or weed control at 100 g/ha [12] [%] | pest or weed control at 5 µg/cm2, 500 g/ha [12] [%] | mortality at 4 mg/m2 [13] [%] | mortality at 20 mg/m2 [14] [%] | other results
C[C@H](NC(=O)c1cc(C(F)(F)F)cc(S(C)(=O)=O)c1)c1nc(Cl)nn1-c1ncccn1 [I-96, N-[(1S)-1-(5-chloro-2-pyrimidin-2-yl-1,2,4-triazol-3-yl)ethyl]-3-methylsulfonyl-5-(trifluoromethyl)benzamide] | 100 | 100 | – | – | – | – | – | – | – | – | – | – | – | – | – | – | – | mortality at 500 g/ha [3]: 100%; mortality at 500 g/ha [4]: 100%
C[C@H](NC(=O)c1cncc(C2CC2)c1)c1ncnn1-c1ccc(C#N)cn1 [II-1] | – | – | 100 | 80 to 100 | 80 to 100 | – | – | – | – | – | – | – | – | – | – | – | – | –
Cc1nc([C@H](C)NC(=O)c2csc(Cl)c2)n(-c2ccc(C#N)cn2)n1 [II-8] | 83 | 100 | 100 | – | 80 to 100 | 100 | 100 | 100 | 80 to 100 | 100 | 80 | 100 | 100 | – | – | – | – | mortality at 20 mg/m2 [5, 15]: 80 to 100%
C[C@H](NC(=O)c1csc(Cl)c1)c1ncnn1-c1ncccn1 [II-30] | – | – | – | 80 to 100 | 80 to 100 | 100 | 100 | 100 | 80 to 100 | 100 | 100 | 100 | 90 | 100 | 100 | – | – | mortality at 500 g/ha [11]: 90%
C[C@H](NC(=O)c1cc(Cl)cc(S(=O)(=O)C(F)F)c1)c1ncnn1-c1ccc(Cl)cn1 [II-37] | 100 | 100 | 100 | – | 80 to 100 | 100 | 100 | 100 | 80 to 100 | 100 | 100 | 100 | – | – | – | 80 to 100 | 80 to 100 | mortality at 20 mg/m2 [13, 15]: 80 to 100%
C[C@H](NC(=O)c1cc(C(F)(F)F)cc(S(=O)(=O)C2CC2)c1)c1ncnn1-c1ccc(Cl)cn1 [II-46] | 100 | 100 | – | – | 80 to 100 | – | 100 | 100 | 80 to 100 | 90 | 100 | 100 | – | 100 | 80 | 80 to 100 | 80 to 100 | –
